# Data from patent publication US20250255874A1, “Methods for Treating Immune Thrombocytopenia By Administering (R)-2-[3-[4-Amino-3-(2-Fluoro-4-Phenoxy-Phenyl)Pyrazolo[3,4-D]Pyrimidin-1-YL]Piperidine-1-Carbonyl]-4-Methyl-4-[4-(Oxetan-3-YL)Piperazin-1-YL]Pent-2-Enentrile” (Principia Biopharma Inc., priority 2022, published 2025).
# Test system: patients with relapsed/refractory immune thrombocytopenia
# Assay: Phase 1/2 study (NCT03395210) Part A, safety;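 further: adverse events graded by NCI CTCAE version 4.0, with worsening of pre-existing conditions counted as adverse events, analysed in the Safety Population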
# Conditions: Safety Population; N = 60
smiles,measurement,value
"CC(C)(C=C(C#N)C(=O)N1CCC[C@@H](n2nc(-c3ccc(Oc4ccccc4)cc3F)c3c(N)ncnc32)C1)N1CCN(C2COC2)CC1 [rilzabrutinib, (R)-2-[3-[4-amino-3-(2-fluoro-4-phenoxy-phenyl)pyrazolo[3,4-d]pyrimidin-1-yl]piperidine-1-carbonyl]-4-methyl-4-[4-(oxetan-3-yl)piperazin-1-yl]pent-2-enenitrile]","Back pain, TEAEs Due to Any Cause, Grade 2",1 (2) number of patients (percent)
same,"Back pain, Treatment-Related TEAEs, Any grade",1 (2) number of patients (percent)
same,"Back pain, Treatment-Related TEAEs, Grade 2",1 (2) number of patients (percent)
same,"Conjunctival hemorrhage, TEAEs Due to Any Cause, Any grade",5 (8) number of patients (percent)
same,"Conjunctival hemorrhage, TEAEs Due to Any Cause, Grade 1",5 (8) number of patients (percent)
same,"Contusion, TEAEs Due to Any Cause, Any grade",11 (18) number of patients (percent)
same,"Contusion, TEAEs Due to Any Cause, Grade 1",7 (12) number of patients (percent)
same,"Contusion, TEAEs Due to Any Cause, Grade 2",3 (5) number of patients (percent)
same,"Contusion, TEAEs Due to Any Cause, Grade 3/4",1 (2) number of patients (percent)
same,"Contusion, Treatment-Related TEAEs, Any grade",1 (2) number of patients (percent)
same,"Contusion, Treatment-Related TEAEs, Grade 1",1 (2) number of patients (percent)
same,"Costochondritis, TEAEs Due to Any Cause, Any grade",2 (3) number of patients (percent)
same,"Costochondritis, TEAEs Due to Any Cause, Grade 1",2 (3) number of patients (percent)
same,"Cough, TEAEs Due to Any Cause, Any grade",2 (3) number of patients (percent)
same,"Cough, TEAEs Due to Any Cause, Grade 1",2 (3) number of patients (percent)
same,"Decreased appetite, TEAEs Due to Any Cause, Any grade",1 (2) number of patients (percent)
same,"Decreased appetite, TEAEs Due to Any Cause, Grade 1",1 (2) number of patients (percent)
same,"Decreased appetite, Treatment-Related TEAEs, Any grade",1 (2) number of patients (percent)
same,"Decreased appetite, Treatment-Related TEAEs, Grade 1",1 (2) number of patients (percent)
same,"Defecation urgency, TEAEs Due to Any Cause, Any grade",1 (2) number of patients (percent)
same,"Defecation urgency, TEAEs Due to Any Cause, Grade 2",1 (2) number of patients (percent)
same,"Defecation urgency, Treatment-Related TEAEs, Any grade",1 (2) number of patients (percent)
same,"Defecation urgency, Treatment-Related TEAEs, Grade 2",1 (2) number of patients (percent)
same,"Diarrhea, TEAEs Due to Any Cause, Any grade",22 (37) number of patients (percent)
same,"Diarrhea, TEAEs Due to Any Cause, Grade 1",19 (32) number of patients (percent)
same,"Diarrhea, TEAEs Due to Any Cause, Grade 2",3 (5) number of patients (percent)
same,"Diarrhea, Treatment-Related TEAEs, Any grade",19 (32) number of patients (percent)
same,"Diarrhea, Treatment-Related TEAEs, Grade 1",16 (27) number of patients (percent)
same,"Diarrhea, Treatment-Related TEAEs, Grade 2",3 (5) number of patients (percent)
same,"Dizziness, TEAEs Due to Any Cause, Any grade",2 (3) number of patients (percent)
same,"Dizziness, TEAEs Due to Any Cause, Grade 1",2 (3) number of patients (percent)
same,"Dyspepsia, TEAEs Due to Any Cause, Any grade",4 (7) number of patients (percent)
same,"Dyspepsia, TEAEs Due to Any Cause, Grade 1",3 (5) number of patients (percent)
same,"Dyspepsia, TEAEs Due to Any Cause, Grade 2",1 (2) number of patients (percent)
same,"Dyspepsia, Treatment-Related TEAEs, Any grade",1 (2) number of patients (percent)
same,"Dyspepsia, Treatment-Related TEAEs, Grade 1",1 (2) number of patients (percent)
same,"Dyspnea exertional, TEAEs Due to Any Cause, Any grade",2 (3) number of patients (percent)
same,"Dyspnea exertional, TEAEs Due to Any Cause, Grade 1",2 (3) number of patients (percent)
same,"Dyspnea, TEAEs Due to Any Cause, Any grade",2 (3) number of patients (percent)
same,"Dyspnea, TEAEs Due to Any Cause, Grade 1",2 (3) number of patients (percent)
same,"Edema, TEAEs Due to Any Cause, Any grade",2 (3) number of patients (percent)
same,"Edema, TEAEs Due to Any Cause, Grade 1",2 (3) number of patients (percent)
same,"Edema, Treatment-Related TEAEs, Any grade",1 (2) number of patients (percent)
same,"Edema, Treatment-Related TEAEs, Grade 1",1 (2) number of patients (percent)
same,"Epigastric discomfort, TEAEs Due to Any Cause, Any grade",1 (2) number of patients (percent)
same,"Epigastric discomfort, TEAEs Due to Any Cause, Grade 2",1 (2) number of patients (percent)
same,"Epigastric discomfort, Treatment-Related TEAEs, Any grade",1 (2) number of patients (percent)
same,"Epigastric discomfort, Treatment-Related TEAEs, Grade 2",1 (2) number of patients (percent)
same,"Epistaxis, TEAEs Due to Any Cause, Any grade",2 (3) number of patients (percent)
same,"Epistaxis, TEAEs Due to Any Cause, Grade 1",2 (3) number of patients (percent)
same,"Erysipelas, TEAEs Due to Any Cause, Any grade",1 (2) number of patients (percent)
same,"Erysipelas, TEAEs Due to Any Cause, Grade 2",1 (2) number of patients (percent)
same,"Erysipelas, Treatment-Related TEAEs, Any grade",1 (2) number of patients (percent)
same,"Erysipelas, Treatment-Related TEAEs, Grade 2",1 (2) number of patients (percent)
same,"Fatigue, TEAEs Due to Any Cause, Any grade",12 (20) number of patients (percent)
same,"Fatigue, TEAEs Due to Any Cause, Grade 1",10 (17) number of patients (percent)
